Among the data in US20120270844A1, “METHODS FOR TREATING ALZHEIMER'S DISEASE” (aFRAXis, Inc., priority 2009, published 2012) are IC50 values, retold here.

Format in all cases: biochemical
One experiment concerns the target PAK4 (Homo sapiens, UniProt O96013). The experiment is described as follows: Z'Lyte fluorescence-based (FRET) PAK kinase assay, PAK4. The settings on record: 5 μM ATP. The protocol:
(§1) A fluorescence-based assay format is used to determine IC50 values of test compounds in vitro. Purified PAK kinase is incubated with ATP, and a test compound at various concentrations and a substrate peptide containing two fluorophores. In a second step, the reaction mix is incubated with a site-specific protease that cleaves non-phosphorylated bat not phosphorylated substrate peptide, disrupting the FRET signal generated by the two fluorophores in the cleaved peptide (Z′Lyte™ Kinase assay platform; Life Technologies).
(§2) Reagents: 50 mM HEPES, pH 7.5; 0.01% BRIJ-35; […]; 1 mM EGTA, 2 uM substrate peptide Ser/Thr20 (proprietary Life Technologies Sequence), PAK enzyme [2.42-30.8 ng for PAK1, 0.29-6 ng for PAK2, 1.5-20 ng for PAK3 and 0.1-0.86 ng for PAK4; actual enzyme amounts depend on lot activity of the enzyme preparation]
(§3) Test compounds are dissolved in DMSO at various concentrations; the final DMSO concentration in the assay reaction is 1%.
(§4) ATP concentration at […] apparent is used in the assay [50 ┌M ATP for PAK1 assay, 75 ┌M ATP for PAK2 assay, 100 μM ATP for PAK3 assay, 5 μM ATP for PAK4 assay] in a total assay volume of 10 μl. Assay reactions are incubated at room temperature for 1 hr. Following the kinase reaction, 5 μl of 1:256 dilution of development solution A (Life Technologies) is added and the reaction mix is incubated for an additional 1 hr at room temperature.
(§5) Plates are analyzed in a standard fluorescence plate reader (Tecan or equivalent) using an excitation wavelength of 400 nn and emission wavelengths of 445 nm and 520 nm.
(§6) Inhibition of kinase reaction is determined by emission ratio=emission@445 nm/emission@520 nm
(§7) A fluorescence-based assay format is used to determine IC50 values of test compounds in vitro. Purified PAK kinase is incubated with ATP, and a test compound at various concentrations and a substrate peptide containing two fluorophores. In a second step, the reaction mix is incubated with a site-specific protease that cleaves non-phosphorylated but not phosphorylated substrate peptide, disrupting the FRET signal generated by the two fluorophores in the cleaved peptide (Z'Lyte™ Kinase assay platform Life Technologies).
(§8) Reagents: 50 mM HEPES, pH 7.5; 0.01% BRIJ-35; 10 mM MgCl2; 1 mM EGTA, 2 uM substrate peptide Ser/Thr20 (proprietary Life Technologies Sequence), PAK enzyme [2.42-30.8 ng for PAK1, 0.29-6 ng for PAK2, 1.5-20 ng for PAK3 and 0.1-0.86 ng for PAK4; actual enzyme amounts depend on lot activity of the enzyme preparation]
(§9) ATP concentration at Km apparent is used in the assay [50 μMATP for PAK1 assay, 75 µM ATP for PAK2 assay, 100 μM ATP for PAK3 assay, 5 μM ATP for PAK4 assay] in a total assay volume of […] Assay reactions are incubated at room temperature for 1 hr. Following the kinase reaction. […] of 1:256 dilution of development solution A (Life Technologies) is added and the reaction mix is incubated for an additional 1 hr at room temperature.
(§10) Plates are analyzed in a standard fluorescence plate reader (Teem or equivalent) using an excitation wavelength of 400 nm and emission wavelengths of 445 nm and 520 nm.

The target in a further experiment is PAK1 (Homo sapiens, UniProt Q13153). The experiment is described as follows: Z'Lyte fluorescence-based (FRET) PAK kinase assay, PAK1. As to conditions: 50 μM ATP. On the procedure: as §1, §2, §3, §4, §5, §6, §7, §8, §9, §10
Sequence of PAK1 (Q13153 whole entry): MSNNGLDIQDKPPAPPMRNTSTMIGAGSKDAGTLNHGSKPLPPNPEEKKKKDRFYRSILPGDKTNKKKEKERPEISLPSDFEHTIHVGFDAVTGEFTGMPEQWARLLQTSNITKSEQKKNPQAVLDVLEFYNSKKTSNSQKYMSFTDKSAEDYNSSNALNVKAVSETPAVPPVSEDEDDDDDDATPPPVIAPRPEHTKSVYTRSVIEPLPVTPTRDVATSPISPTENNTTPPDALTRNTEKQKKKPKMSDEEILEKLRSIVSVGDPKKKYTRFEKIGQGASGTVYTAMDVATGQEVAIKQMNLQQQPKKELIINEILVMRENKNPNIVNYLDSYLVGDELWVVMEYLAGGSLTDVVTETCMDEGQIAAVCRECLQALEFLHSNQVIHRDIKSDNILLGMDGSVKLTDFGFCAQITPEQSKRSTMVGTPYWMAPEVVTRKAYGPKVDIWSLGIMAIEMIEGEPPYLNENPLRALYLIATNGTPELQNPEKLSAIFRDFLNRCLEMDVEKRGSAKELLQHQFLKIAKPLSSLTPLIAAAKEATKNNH
The target of another experiment is PAK3 (Homo sapiens, UniProt O75914). The experiment is described as follows: Z'Lyte fluorescence-based (FRET) PAK kinase assay, PAK3. As to conditions: 100 μM ATP. On the procedure:
as §1, §2, §3, §4, §5, §6, §7, §8, §9, §10

The target in the next experiment is PAK2 (Homo sapiens, UniProt Q13177). The experiment is described as follows: Z'Lyte fluorescence-based (FRET) PAK kinase assay, PAK2. The protocol:
as §1, §2, §3, §4, §5, §6, §7, §8, §9, §10

Setting [1] is: Table 1 of Example 100, 75 μM ATP.
Where [2] appears, read: Table 1 of Example 29 (own compound numbering).
Setting [3] is: Table 1 of Example 29 (own compound numbering), 75 µM ATP.

The structures appear in SMILES notation. pIC50: −log10 of the molar value. Where only a bound is given, the exact number is not on record here.

Sequence of PAK4 (O96013 whole entry): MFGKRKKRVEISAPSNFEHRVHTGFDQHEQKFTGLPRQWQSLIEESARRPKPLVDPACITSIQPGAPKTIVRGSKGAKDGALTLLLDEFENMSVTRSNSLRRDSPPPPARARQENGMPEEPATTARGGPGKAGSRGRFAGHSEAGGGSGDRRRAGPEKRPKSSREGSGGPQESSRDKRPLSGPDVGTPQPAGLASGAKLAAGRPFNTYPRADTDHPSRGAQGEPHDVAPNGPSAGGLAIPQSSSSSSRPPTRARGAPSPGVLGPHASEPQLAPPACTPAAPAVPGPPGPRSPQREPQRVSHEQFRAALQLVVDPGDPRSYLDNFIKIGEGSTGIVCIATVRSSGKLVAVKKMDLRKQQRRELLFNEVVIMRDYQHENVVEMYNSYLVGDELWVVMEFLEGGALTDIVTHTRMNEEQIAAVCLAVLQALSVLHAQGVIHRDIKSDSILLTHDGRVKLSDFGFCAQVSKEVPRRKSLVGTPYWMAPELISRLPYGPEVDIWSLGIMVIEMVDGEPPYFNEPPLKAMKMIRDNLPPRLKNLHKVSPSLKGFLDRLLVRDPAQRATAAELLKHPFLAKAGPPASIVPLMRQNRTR
Sequence of PAK2 (Q13177 whole entry): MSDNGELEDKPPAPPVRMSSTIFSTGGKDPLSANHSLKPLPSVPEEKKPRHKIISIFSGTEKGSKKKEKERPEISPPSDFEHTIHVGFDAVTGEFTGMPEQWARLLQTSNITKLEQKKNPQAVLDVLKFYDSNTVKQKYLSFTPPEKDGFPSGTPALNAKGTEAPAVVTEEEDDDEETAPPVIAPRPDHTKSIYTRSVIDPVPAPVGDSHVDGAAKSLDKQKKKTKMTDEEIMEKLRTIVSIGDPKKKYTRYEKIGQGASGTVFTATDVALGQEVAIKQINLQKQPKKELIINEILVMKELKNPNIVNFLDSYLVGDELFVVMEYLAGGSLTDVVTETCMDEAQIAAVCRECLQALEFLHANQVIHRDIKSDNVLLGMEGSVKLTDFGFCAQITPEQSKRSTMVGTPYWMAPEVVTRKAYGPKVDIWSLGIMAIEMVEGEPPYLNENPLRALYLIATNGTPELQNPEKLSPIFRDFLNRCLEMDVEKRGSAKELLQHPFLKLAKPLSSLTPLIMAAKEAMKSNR
Sequence of PAK3 (O75914 whole entry): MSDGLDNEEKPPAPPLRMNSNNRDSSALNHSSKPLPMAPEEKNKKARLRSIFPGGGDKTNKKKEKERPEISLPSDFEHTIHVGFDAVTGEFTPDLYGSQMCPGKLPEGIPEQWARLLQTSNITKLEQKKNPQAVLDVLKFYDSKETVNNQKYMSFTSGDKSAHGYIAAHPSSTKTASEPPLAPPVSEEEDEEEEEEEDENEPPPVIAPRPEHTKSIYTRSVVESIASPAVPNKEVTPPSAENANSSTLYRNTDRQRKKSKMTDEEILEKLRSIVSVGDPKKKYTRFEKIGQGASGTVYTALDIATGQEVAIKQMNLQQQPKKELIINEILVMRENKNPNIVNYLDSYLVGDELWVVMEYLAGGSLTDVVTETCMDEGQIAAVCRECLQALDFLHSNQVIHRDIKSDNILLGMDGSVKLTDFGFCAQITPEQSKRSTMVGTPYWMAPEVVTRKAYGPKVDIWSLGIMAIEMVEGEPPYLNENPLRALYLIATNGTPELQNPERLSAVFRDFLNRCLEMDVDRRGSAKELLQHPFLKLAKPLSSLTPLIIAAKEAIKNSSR

For `CN(C)CC(c1ccccc1)n1c(=O)ccc2cnc(Nc3ccc(N4CCOCC4)cc3)nc21` (centres unmarked) [Compound 16], the pIC50 on PAK4 (Table 1 of Example 100), on PAK1 (Table 1 of Example 100), against PAK3 (Table 1 of Example 100) and at PAK2 (setting [1]) was under 5.00 throughout.

Turning to `Cc1cc(Nc2nccc(-c3ccc(NCCN)nc3)n2)ccc1N1CCN(C)CC1` [Compound 152], the pIC50 (usually the IC50 on a negative log10 scale, so that one unit is a factor of ten) against PAK4 (setting [2]) is over 6.00; against PAK1 (setting [2]), over 6.00; against PAK3 (setting [2]), 5.00 to 6.00.

On to `CN1CCN(c2ccc(Nc3ncc4ccc(=O)n(C5CCc6ccccc6C5)c4n3)cc2)CC1` (centres unmarked) [Compound 18], for which the pIC50 on PAK4 (Table 1 of Example 100), against PAK1 (Table 1 of Example 100), at PAK3 (Table 1 of Example 100) and at PAK2 (setting [1]) was over 6.00 in each case.

In the case of `CN1CCN(c2ccc(Nc3ncc4ccc(=O)n(Cc5c(F)cccc5C(F)(F)F)c4n3)cc2)CC1` [Compound 112], the pIC50 at PAK4 (setting [2]), at PAK1 (setting [2]) and at PAK3 (setting [2]) was over 6.00 throughout.

With `Cc1cccc(O)c1Cn1c(=O)ccc2cnc(Nc3ccc(N4CCN(C)CC4)cc3)nc21` [Compound 119], the pIC50 against PAK4 (setting [2]) was over 6.00; against PAK1 (setting [2]) it was over 6.00; at PAK3 (setting [2]), 5.00 to 6.00; at PAK2 (setting [3]), 5.00 to 6.00.

With `COc1ccc(F)cc1Cn1c(=O)ccc2cnc(Nc3ccc(N4CCN(C)CC4)cc3)nc21` [Compound 54], the pIC50 against PAK4 (Table 1 of Example 100) was 5.00 to 6.00; against PAK1 (Table 1 of Example 100), over 6.00; at PAK3 (Table 1 of Example 100), 5.00 to 6.00; on PAK2 (setting [1]), 5.00 to 6.00.

With `CN1CCCC(Nc2ccc(Nc3ncc4ccc(=O)n(Cc5ccccc5C(F)(F)F)c4n3)cc2)C1` (centres unmarked) [Compound 115], the pIC50 at PAK4 (setting [2]), against PAK1 (setting [2]), against PAK3 (setting [2]) and against PAK2 (setting [3]) was over 6.00 in each case.

On to `CN1CCN(c2ccc(Nc3ncc4ccc(=O)n(Cc5ccccc5-n5cccn5)c4n3)cc2)CC1` [Compound 107], for which the pIC50 is 5.00 to 6.00 against PAK4 (setting [2]), over 6.00 on PAK1 (setting [2]), 5.00 to 6.00 against PAK3 (setting [2]) and 5.00 to 6.00 against PAK2 (setting [3]).

Regarding `Cc1ccc(C)c(Cn2c(=O)ccc3cnc(Nc4ccc(N5CCN(C)CC5)cc4)nc32)c1` [Compound 46], the pIC50 against PAK4 (Table 1 of Example 100), against PAK1 (Table 1 of Example 100), at PAK3 (Table 1 of Example 100) and against PAK2 (setting [1]) was 5.00 to 6.00 in each case.

As for `Cc1cc(F)ccc1Cn1c(=O)ccc2cnc(Nc3ccc(N4CCN(C)CC4)cc3)nc21` [Compound 45], the pIC50 against PAK4 (Table 1 of Example 100), against PAK1 (Table 1 of Example 100), against PAK3 (Table 1 of Example 100) and against PAK2 (setting [1]) was 5.00 to 6.00 throughout.

For `CSc1cccc(F)c1Cn1c(=O)ccc2cnc(Nc3ccc(N4CCN(C)CC4)cc3)nc21` [Compound 138], the pIC50 on PAK4 (setting [2]), against PAK1 (setting [2]) and at PAK3 (setting [2]) was over 6.00 in each case.

In the case of `CN1CCN(c2ccc(Nc3ncc4ccc(=O)n(Cc5cccnc5)c4n3)cc2)CC1` [Compound 38], the pIC50 on PAK4 (Table 1 of Example 100) was under 5.00; on PAK1 (Table 1 of Example 100), 5.00 to 6.00; on PAK2 (setting [1]) it was under 5.00.

As to `Cc1cc(Nc2nccc(-c3ccc(NCCN)nc3)n2)ccc1N1CCN(C)CC1` [compound 83], the pIC50 is over 6.00 at PAK4 (Table 1 of Example 100), over 6.00 against PAK1 (Table 1 of Example 100) and 5.00 to 6.00 against PAK3 (Table 1 of Example 100).

Regarding `CN1CCN(c2ccc(Nc3ncc4ccc(=O)n(Cc5ccccc5)c4n3)cc2)CC1` [compound 80], the pIC50 against PAK4 (setting [2]) is under 5.00; against PAK1 (setting [2]), 5.00 to 6.00; against PAK2 (setting [3]), 5.00 to 6.00.

As for `CN1CCN(c2ccc(Nc3ncc4ccc(=O)n(Cc5c(F)cccc5C(F)(F)F)c4n3)cc2)CC1` [compound 58], the pIC50 on PAK4 (Table 1 of Example 100), on PAK1 (Table 1 of Example 100) and against PAK3 (Table 1 of Example 100) was over 6.00 in each case.

Regarding `CN(C)c1ccc(Nc2ncc3ccc(=O)n(C4CCCC4)c3n2)cc1` [Compound 3], the pIC50 was 5.00 to 6.00 against PAK4 (Table 1 of Example 100), under 5.00 against PAK1 (Table 1 of Example 100) and under 5.00 on PAK2 (setting [1]).
